Values joined by “and” are separate entries in the source; they are usually repeats but may differ in a detail not shown here. Equal entries are not always repeated.

Series [1] concerns the target T1, MBLAC2 (Homo sapiens, UniProt Q68D91).
T1 construct: endogenous in cells; host or cells: cell lysate
T1 sequence (Q68D91 1-279): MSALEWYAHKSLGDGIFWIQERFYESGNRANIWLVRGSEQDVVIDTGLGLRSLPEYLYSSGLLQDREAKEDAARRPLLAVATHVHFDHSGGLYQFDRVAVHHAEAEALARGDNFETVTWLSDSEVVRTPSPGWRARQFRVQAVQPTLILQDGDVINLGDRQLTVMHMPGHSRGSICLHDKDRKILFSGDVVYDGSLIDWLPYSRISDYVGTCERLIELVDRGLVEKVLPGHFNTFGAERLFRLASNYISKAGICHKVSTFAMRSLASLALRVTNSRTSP
Description: Chemoproteomic competition pulldown assay with iC. It is filed as binding. The settings on record: for relative binding vs DMSO: iC. On the procedure: (§1) To identify proteins directly bound by lipoic acid, we employed a chemoproteomic competition assay. Briefly, (R/S)-LA was immobilized on sepharose beads via an amidation reaction to form an affinity matrix (abbreviated as iL; Fig. 1a). This affinity matrix can be incubated with cell lysate to pull down potential LA or LM target proteins and identify these targets via bottom-up proteomics. In a competition assay, free LA or LM were incubated with lysate at different concentrations before pulling down and quantifying target proteins. […] (Fig. 1b, see “Methods” for details). […] The lysate buffer used in this assay contains 1 mM DTT to mimic the intracellular reductive milieu and to reduce lipoic acid and LM. […] Additional competition assays performed in lung adenocarcinoma cell A549 lysate also identified HDAC1, HDAC2, and HDAC6 as targets (Supplementary Fig. 1b). Amongst the three cell lines tested, HDACs were the only confidently identified targets across the 1500–3000 proteins quantified in these assays. […] We validated the results by analogous pulldown competition assays using two other affinity matrices prepared via the immobilization of either the HDAC inhibitor Quisinostat (iQ) and an analog of the class IIa HDAC inhibitor Bürli’s 31[14] (iC)[12]. We have previously shown that these affinity matrices specifically bind to the active sites of HDACs and have used them for HDACi selectivity profiling. Indeed, binding of (R/S)-LA and (R/S)-LM to HDAC1, HDAC2, HDAC3, HDAC6, and, to a lesser extent, HDAC8 was confirmed in these assays (Supplementary Fig. 1c, d). No binding to class IIa HDACs or the recently discovered common HDAC inhibitor off-target MBLAC2 was observed (Supplementary Fig. 1e)[12]. […] This observation might reflect electrostatic repulsion between the HDAC10 active site gate-keeper glutamic acid residues[15],[16] and the terminal carboxylic acid of LA.
(§2) To assess the degree of protein depletion from lysates by the affinity matrix, a second pulldown (PDPD) with fresh beads was performed using the unbound protein fraction from the vehicle control flow through. The beads were washed (1 × 1 mL of lysis buffer without inhibitors and only 0.4% Igepal, 2 × 2 mL of lysis buffer without inhibitors and only 0.2% Igepal), and captured proteins were denatured with 8 M urea buffer, alkylated with 55 mM chloroacetamide and digested with Trypsin according to standard procedures. The resulting peptides were desalted on a C18 filter plate (Sep-Pak® tC18 µElution Plate, Waters), vacuum dried, and stored at −20 °C until LC–MSMS measurement.
(§3) For the competition assays, relative binding was calculated based on the protein intensity ratio to the DMSO control for every single inhibitor concentration. EC50 values were derived from a four-parameter log-logistic regression with variable slope (constrain: bottom > 0). The obtained EC50 values were multiplied with a protein-dependent correction factor (cf), resulting in the apparent Kd value (Kd^app). The correction factor is determined by calculating the ratio of the protein intensity of two consecutive pulldowns of the vehicle control sample[13]. Targets of the inhibitors were annotated manually according to published procedures[12],[46],[47]. […] Additionally, the number of unique peptides and MSMS counts per condition were taken into account. Positive target binding across several independent experiments performed with different cell lysates further substantiated our confidence for a true positive drug-target binding event.

Series [2] relates to HeLa S3 cells. Put plainly: Global acetyl-lysine detection by Western blot. The settings on record: for relative lysine acetylation vs DMSO: HeLa S3, 1 mM, 16 h, replicates A/B.
Description: HeLa S3 was grown in DMEM medium (PAN Biotech) supplemented with 10% FBS (PAN Biotech) and treated with drugs (final concentration of 0.1% DMSO) for indicated periods. […] The protein amount of cell lysates was determined by Bradford assay. […] Proteins were separated by SDS-PAGE and electro-transferred onto PVDF membranes. […] Acquisition and quantification of the band fluorescence intensities were carried out with the Odyssey (Licor) imaging system and corresponding software (v 3.0.29). Intensities of proteins were normalized to input beta-Actin and further normalized to the control treatments to calculate the relative acetylation change.
For series [3] the following is noted: cited from earlier work.
Series [4] has as its system A549 cells. Put plainly: Arsenite-induced stress granule formation (G3BP1 immunofluorescence). The format is cell-based. The settings on record: for arsenite-induced stress granule quantification (G3BP1), Mean / arsenite-induced stress granule quantification (G3BP1), Median / arsenite-induced stress granule quantification (G3BP1), individual values: sheet 4b; for arsenite-induced stress granule quantification (G3BP1), individual values: single data points. On the procedure: The acetylation status of proteins can affect their macromolecular associations and the tendency of proteins to phase-separate into liquid condensates such as stress granules. […] After pre-incubation of cells with the compound, stress granule formation was induced using 30 min of arsenite treatment (1 mM). After treatment, cells were fixed for immunofluorescence detection of stress granules via the common stress granule marker protein G3BP1[21].
0.03 × 10^6 A549 cells were seeded at 4-chamber slides (Thermo, Nunc) and cultured at 37 °C overnight. Cells were treated with HDAC inhibitor SAHA and Lipoic acid or LM for 6 h, followed by 1 mM Arsenite for 30 min. Cells were fixed by 4% PFA and permeabilized by 0.5% Triton X-100/PBS. 10% Goat serum in PBS was used for blocking. After manually selecting an area with cell confluency of 50–80%, 16 pictures were taken randomly around the central point (ZEISS software in-built function). Stress granule marker G3BP1 (Aviva Systems Biology, ARP37713_T100) was visualized and quantified by ImageJ. Statistical analysis was performed with GraphPad Prism.

Series [5] has as its target T2, HDAC3 (Homo sapiens, UniProt O15379).
T2 construct: endogenous in cells; host or cells: MV4-11 lysate
Description: Chemoproteomic competition pulldown assay. The format is binding. The settings on record: iL, MV4-11 lysate. On the procedure:
as §1, §2, §3

[6] abbreviates: HeLa S3, time-dependent treatment, 5 mM.

T2 sequence (O15379 whole entry): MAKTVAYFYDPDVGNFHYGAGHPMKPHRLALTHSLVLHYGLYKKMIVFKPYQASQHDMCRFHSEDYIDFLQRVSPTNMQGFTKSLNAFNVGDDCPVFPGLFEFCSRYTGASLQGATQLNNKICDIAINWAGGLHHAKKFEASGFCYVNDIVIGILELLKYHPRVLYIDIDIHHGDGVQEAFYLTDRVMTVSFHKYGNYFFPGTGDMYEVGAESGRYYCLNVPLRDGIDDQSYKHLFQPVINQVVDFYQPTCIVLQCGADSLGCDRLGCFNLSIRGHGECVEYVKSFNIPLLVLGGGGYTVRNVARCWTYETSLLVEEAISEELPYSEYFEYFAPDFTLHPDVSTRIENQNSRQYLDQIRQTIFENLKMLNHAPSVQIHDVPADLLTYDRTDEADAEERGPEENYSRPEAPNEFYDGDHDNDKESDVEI
T2 sequence (O75376 whole entry partner): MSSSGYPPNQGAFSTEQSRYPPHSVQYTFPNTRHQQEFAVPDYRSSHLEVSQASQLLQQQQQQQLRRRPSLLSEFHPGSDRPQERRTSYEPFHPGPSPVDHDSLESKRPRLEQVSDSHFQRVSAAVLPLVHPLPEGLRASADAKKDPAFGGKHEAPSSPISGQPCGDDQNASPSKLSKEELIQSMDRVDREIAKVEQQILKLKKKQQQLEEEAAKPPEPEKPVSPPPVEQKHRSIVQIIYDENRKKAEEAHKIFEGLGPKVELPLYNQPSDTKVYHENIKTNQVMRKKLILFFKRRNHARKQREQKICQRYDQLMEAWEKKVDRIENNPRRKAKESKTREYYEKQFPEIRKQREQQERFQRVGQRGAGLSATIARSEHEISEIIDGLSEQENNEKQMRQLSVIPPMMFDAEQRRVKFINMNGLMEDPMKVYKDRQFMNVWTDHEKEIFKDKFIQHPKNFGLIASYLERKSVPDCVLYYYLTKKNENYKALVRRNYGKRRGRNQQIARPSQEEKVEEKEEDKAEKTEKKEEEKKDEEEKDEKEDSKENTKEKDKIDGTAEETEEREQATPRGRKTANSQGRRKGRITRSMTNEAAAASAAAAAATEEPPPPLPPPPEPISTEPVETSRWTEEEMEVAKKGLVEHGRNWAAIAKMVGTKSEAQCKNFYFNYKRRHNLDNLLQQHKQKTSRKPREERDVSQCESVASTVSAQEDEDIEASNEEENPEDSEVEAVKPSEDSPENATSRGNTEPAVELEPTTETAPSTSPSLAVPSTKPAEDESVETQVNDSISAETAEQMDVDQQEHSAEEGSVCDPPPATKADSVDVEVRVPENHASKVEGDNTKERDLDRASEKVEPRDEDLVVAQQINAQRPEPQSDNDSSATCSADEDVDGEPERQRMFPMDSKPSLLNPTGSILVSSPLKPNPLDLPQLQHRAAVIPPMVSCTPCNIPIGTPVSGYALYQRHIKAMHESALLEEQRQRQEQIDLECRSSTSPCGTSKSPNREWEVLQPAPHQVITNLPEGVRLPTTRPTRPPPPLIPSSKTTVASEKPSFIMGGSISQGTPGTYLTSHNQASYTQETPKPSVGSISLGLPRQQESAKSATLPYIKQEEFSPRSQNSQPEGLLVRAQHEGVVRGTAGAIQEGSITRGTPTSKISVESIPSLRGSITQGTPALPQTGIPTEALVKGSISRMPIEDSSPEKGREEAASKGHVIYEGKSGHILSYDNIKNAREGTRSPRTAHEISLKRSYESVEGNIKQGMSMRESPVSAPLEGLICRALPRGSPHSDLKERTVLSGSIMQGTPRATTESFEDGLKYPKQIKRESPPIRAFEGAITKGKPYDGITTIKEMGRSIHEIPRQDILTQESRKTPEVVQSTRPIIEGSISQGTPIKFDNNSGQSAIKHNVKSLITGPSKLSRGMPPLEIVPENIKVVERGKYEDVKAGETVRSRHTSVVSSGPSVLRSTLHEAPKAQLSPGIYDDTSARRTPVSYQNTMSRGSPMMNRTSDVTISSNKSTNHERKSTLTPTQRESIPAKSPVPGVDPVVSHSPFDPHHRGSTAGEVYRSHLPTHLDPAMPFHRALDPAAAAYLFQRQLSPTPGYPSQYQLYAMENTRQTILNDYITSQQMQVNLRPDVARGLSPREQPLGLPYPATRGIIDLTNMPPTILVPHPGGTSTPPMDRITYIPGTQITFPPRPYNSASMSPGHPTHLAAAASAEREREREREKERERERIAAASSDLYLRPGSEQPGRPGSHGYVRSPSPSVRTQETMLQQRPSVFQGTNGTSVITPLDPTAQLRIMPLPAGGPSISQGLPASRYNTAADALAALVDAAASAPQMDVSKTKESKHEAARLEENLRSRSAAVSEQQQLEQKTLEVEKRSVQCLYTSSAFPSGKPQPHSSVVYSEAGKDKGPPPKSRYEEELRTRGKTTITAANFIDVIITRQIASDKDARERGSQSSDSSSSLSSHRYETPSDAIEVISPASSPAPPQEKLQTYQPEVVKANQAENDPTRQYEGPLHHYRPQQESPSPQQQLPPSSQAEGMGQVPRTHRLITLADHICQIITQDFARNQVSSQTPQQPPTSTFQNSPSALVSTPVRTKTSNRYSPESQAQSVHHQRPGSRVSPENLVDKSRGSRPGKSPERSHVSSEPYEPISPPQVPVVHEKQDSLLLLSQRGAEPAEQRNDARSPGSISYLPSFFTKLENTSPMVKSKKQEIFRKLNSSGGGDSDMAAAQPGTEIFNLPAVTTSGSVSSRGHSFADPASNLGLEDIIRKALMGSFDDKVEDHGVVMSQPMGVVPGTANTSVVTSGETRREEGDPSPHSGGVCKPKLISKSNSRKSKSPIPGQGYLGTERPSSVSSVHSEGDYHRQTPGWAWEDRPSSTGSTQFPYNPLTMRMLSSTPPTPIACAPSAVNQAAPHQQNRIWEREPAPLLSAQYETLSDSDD

Turning to `O=C(O)CCCCC1CCSS1` (racemic) [(R/S)-LA, (R/S)-lipoic acid], the “binding to MBLAC2” value in series [1] (affinity matrix iC) was “No binding”. Further, the “relative binding vs DMSO” value in series [1] (log10 M -3.52288) was 0.9784; in series [1] (log10 M -4), 1.054; in series [1] (log10 M -4.52288), 1.366; in series [1] (log10 M -5), 1.348; in series [1] (log10 M -5.52288), 1.098; in series [1] (log10 M -6) it was 1.484. For the same compound, the “relative binding vs DMSO” value in series [1] (log10 M -6.52288) is 0.5203; in series [1] (log10 M -7), 0.9131. Further, the “relative lysine acetylation vs DMSO” value in series [2] (10-12 kDa bands) was 5.9571 and 6.0208; in series [2] (14-16 kDa bands), 4.6853 and 4.9960; in series [2] (21-23 kDa bands) it was 2.3477 and 2.3498; in series [2] (24-26 kDa bands) it was 2.1045 and 2.1971; in series [2] (49-51 kDa bands), 6.4530 and 6.1942; in series [2] (65-73 kDa bands), 5.8639 and 5.7630. Moreover, the “time of peak acetylation” value in series [2] (setting [6]) lay within 3 to 8 h. Further, in series [2] (setting [6]), the “time to upregulation of acetylation on a broad range of proteins” value is at most 1 h. Besides, the peak plasma concentrations in series [3] (clinically relevant doses 600 to 2400 mg/day, orally and intravenously) is 100 to 500 µM. For the same compound, the peak plasma concentration result in series [3] (in humans) is given as “about 0.5 mM”.
Regarding `NC(=O)CCCCC1CCSS1` (racemic) [(R/S)-LM, (R/S)-lipoamide], the “arsenite-induced stress granule quantification (G3BP1), Mean” value in series [4] (LM 100 uM) came to 50.8573; in series [4] (LM 300 uM), 32.0457; in series [4] (LM 1000 uM), 21.5611. Further, the “arsenite-induced stress granule quantification (G3BP1), Median” value was found to be 45.1 in series [4] (LM 100 uM), 30.3222 in series [4] (LM 300 uM) and 21.7363 in series [4] (LM 1000 uM). Also, the “arsenite-induced stress granule quantification (G3BP1), individual values” in series [4] (LM 100 uM) was 71 and 31.1875 and 45 and 63.6 and 40.5 and 81.5 and 35.3333 and 36 and 53.7143 and 35.8571 and 38.125 and 41.75 and 45.1 and 52.8 and 44.3 and 63.75 and 64.7778 and 49.1818 and 58.6 and 39.7273 and 76.2; in series [4] (LM 300 uM) it was 24.4375 and 30.6667 and 27.6923 and 44.9286 and 34.8 and 39.0909 and 43.75 and 27.5454 and 17.65 and 28.1111 and 42.3 and 13.75 and 29.6842 and 28.3684 and 12.875 and 35.8333 and 25.5 and 35.3077 and 30.4444 and 43.6667 and 30.2 and 36.2308 and 27.3889 and 58.875; in series [4] (LM 1000 uM), 28.8889 and 25.875 and 20.6667 and 21.6154 and 30.8182 and 26.2857 and 7.556 and 13.9375 and 25.5714 and 28 and 21.25 and 20 and 16.75 and 17 and 9.615 and 15.3 and 22.6191 and 29.6154 and 21.8571. Moreover, in series [4] (pre-incubation 6 h, then 1 mM arsenite 30 min), the “effect on stress granule numbers per cell” value is “dose-dependent reduction of stress granule numbers per cell”. Further, the “relative binding vs DMSO” value turned out to be 0.06787 in series [5] (log10 M -3.52288); 0.1873 in series [5] (log10 M -4); 0.229 in series [5] (log10 M -4.52288); 0.6794 in series [5] (log10 M -5); 1.111 in series [5] (log10 M -5.52288); 0.7918 in series [5] (log10 M -6). The “relative binding vs DMSO” value in series [5] (log10 M -6.52288) is 1.34; in series [5] (log10 M -7), 0.7531. Besides, in series [5] (read-out: Kd app), the Kd worked out at 13 µM.

The values above are taken from publication PMC10272112 (Nature Communications, 2023).
